Literature values, collected in patent US20250042963A1, “METHODS FOR TREATING MYELOPROLIFERATIVE DISORDERS” (Acceleron Pharma Inc., priority 2015, published 2025).

Key:
[1] = tested on: patients with PV that did not respond to hydroxyurea; details: cited from earlier work
JAK2V617F-positive cells = details: cited from earlier work
[2] = tested on: patients with PMF or post-PV/ET MF; details: cited from earlier work
[3] = tested on: patients with a myeloproliferative disorder; details: symptomatic splenomegaly; cited from earlier work
myelofibrosis patients = details: cited from earlier work
patients with MF = details: 82 evaluable patients with MF, three phase 1 and 2 trials; cited from earlier work
MF patients = details: cited from earlier work

## CCN(CC)Cc1ccc2cc(COC(=O)Nc3ccc(C(=O)NO)cc3)ccc2c1 [Givinostat, givinostat]
[1]; randomized phase 2 trial, PV
  complete or partial response: approximately 50%
[1]; the combination
  tolerability: generally well tolerated

## CO[C@H]1C[C@@H]2CC[C@@H](C)[C@@](O)(O2)C(=O)C(=O)N2CCCC[C@H]2C(=O)O[C@H]([C@H](C)C[C@@H]2CC[C@@H](OCCO)[C@H](OC)C2)CC(=O)[C@H](C)/C=C(\C)[C@@H](O)[C@@H](OC)C(=O)[C@H](C)C[C@H](C)/C=C/C=C/C=C/1C [everolimus]
JAK2V617F-positive cells
  proliferation of JAK2V617F-positive cells: decreased
[2]; 30 evaluable patients
  complete resolution of pruritus: 80%
  complete resolution of systemic symptoms: 69%
[2]; in vivo
  response rate, European Myelofibrosis Network criteria: 60%
  response rate, International Working Group for Myelofibrosis Research and Treatment criteria: 23%

## Nc1cccc2c1CN(C1CCC(=O)NC1=O)C2=O (centres unmarked) [lenalidomide]
[3]
  spleen responses / response rate: 33%
Myelofibrosis patients; myelofibrosis patients with del(5q31)-associated anemia
  effect on anemia: significant improvement, with resolution of anemia

## Nc1cccc2c1C(=O)N(C1CCC(=O)NC1=O)C2=O (centres unmarked) [pomalidomide]
Patients with MF
  anemia response according to IWG-MRT criteria: 27%

## CCCCc1nc2cc(/C=C/C(=O)NO)ccc2n1CCN(CC)CC [pracinostat]
MF patients; MF patients
  IWG criteria anemia responses: approximately 10%
MF patients; human, in vivo
  reduction in spleen size (% of patients): 27%

## O=C1CCC(N2C(=O)c3ccccc3C2=O)C(=O)N1 (centres unmarked) [thalidomide]
[3]
  spleen responses / response rate: < 20%
Myelofibrosis patients; myelofibrosis patients, peripheral neuropathies, constipation, somnolence
  tolerability: poorly tolerated
